The record followed here is ChEMBL document CHEMBL2331527, “New imidazo[1,2-a]pyridines carrying active pharmacophores: synthesis and anticonvulsant studies” (Bioorg Med Chem Lett, 2013).

Data set [1] has as its system Mus musculus. Briefly: Neurotoxicity in ip dosed mouse assessed as minimum effective dose required to induce motor impairment measured after 4 hrs by Rotarod test. The class given is toxicity, organism-based. To be noted: in vivo.
Data set [2] relates to Mus musculus. Briefly: Neurotoxicity in ip dosed mouse assessed as minimum effective dose required to induce motor impairment measured after 0.5 hrs by Rotarod test. The class given is toxicity, organism-based. To be noted: in vivo.
For data set [3], the system named is Mus musculus. Briefly: Anticonvulsant activity against subcutaneous pentylenetetrazole-induced seizures in mouse assessed as onset time for tonic seizures at 10 mg/kg, ip measured after 0.5 hrs by pentylene tetrazole test (reference value: 385.5 +/-10.90 secs). The class given is functional. To be noted: route intraperitoneal.
The subject of data set [4] is Mus musculus. In words: Anticonvulsant activity against subcutaneous pentylenetetrazole-induced seizures in mouse assessed as onset time for clonic seizures at 10 mg/kg, ip measured after 0.5 hrs by pentylene tetrazole test (reference value: 59.2 +/-1.11 secs). The class given is functional.
Data set [5] has as its system Mus musculus. Briefly: Anticonvulsant activity against maximal electroshock-induced seizures in NMRI mouse assessed as latency period for the onset of clonus at 10 mg/kg, ip measured after 0.5 hrs by maximal electroshock test (reference value: 2.18 +/-0.47 secs). The class given is functional. To be noted: route intraperitoneal.
In data set [6] the test system is Mus musculus. In words: Anticonvulsant activity against maximal electroshock-induced seizures in NMRI mouse assessed as duration of tonic hindlimb extension at 10 mg/kg, ip measured after 0.5 hrs by maximal electroshock test (reference value: 15.35 +/-0.60%). The class given is functional. To be noted: route intraperitoneal.

In the case of `Cc1cccn2c(C3CC(c4ccc(Cl)cc4)=NN3)c(-c3ccc(F)cc3)nc12` (centres undefined), the MED result in data set [1] and in data set [2] was “Non-toxic” in each case. Further, the Time is reported as 542.2 s in data set [3], 158.7 s in data set [4], 9.45 s in data set [5] and 7.21 s in data set [6].
`Cc1cccn2c(C3CC(c4ccccc4)=NN3)c(-c3ccc(F)cc3)nc12` (centres undefined): the MED result in data set [1] and in data set [2] was “Non-toxic” each time. Moreover, the Time in data set [3] turned out to be 528.2 s; in data set [4] it was 149.3 s; in data set [5], 10.97 s; in data set [6], 6.54 s.
For the molecule `Cc1ccc(C2=NNC(c3c(-c4ccccc4)nc4c(C)cccn34)C2)cc1` (centres undefined), the Time in data set [3] is recorded as 532.5 s; in data set [4], 126.7 s; in data set [5], 9.28 s; in data set [6] it was 7.22 s.
As for `Cc1cccn2c(C3CC(c4ccc(F)cc4)=NN3)c(-c3ccccc3)nc12` (centres undefined), the Time amounted to 426.8 s in data set [3], 79.32 s in data set [4], 9.25 s in data set [5] and 7.15 s in data set [6].
Turning to `Cc1ccc(-c2nc3c(C)cccn3c2C2CC(c3cccs3)=NN2)cc1` (centres undefined), the MED entry in data set [1] and in data set [2] was “Non-toxic” in each case. The Time is on record as 530.8 s in data set [3], 117.7 s in data set [4], 9.33 s in data set [5] and 7.27 s in data set [6].
With `Cc1cccn2c(-c3cc(-c4ccc([N+](=O)[O-])cc4)[nH]c(=O)c3C#N)c(-c3ccc(F)cc3)nc12`, the MED in data set [1] is 100 mg/kg; in data set [2], “Non-toxic”. For the same molecule, the Time in data set [3] worked out at 641.5 s; in data set [4] it was 171.8 s; in data set [5], 10.88 s; in data set [6], 6.61 s.
As to `Cc1cccn2c(-c3cc(-c4ccc(Cl)cc4)[nH]c(=O)c3C#N)c(-c3ccc(F)cc3)nc12`, the MED entry in data set [1] and in data set [2] was “Non-toxic” throughout. Besides, the Time in data set [3] was determined as 544.7 s; in data set [4], 129.2 s; in data set [5] it was 10.97 s; in data set [6], 6.54 s.
Take `COc1nc(-c2ccc(C)cc2)cc(-c2c(-c3ccc(F)cc3)nc3c(C)cccn23)c1C#N`: the MED entry in data set [1] and in data set [2] was “Non-toxic” each time. In addition, the Time came out at 611.5 s in data set [3], 335.3 s in data set [4], 7.94 s in data set [5] and 9.84 s in data set [6].
In the case of `COc1nc(-c2ccccc2)cc(-c2c(-c3ccc(F)cc3)nc3c(C)cccn23)c1C#N`, the MED result in data set [1] and in data set [2] was “Non-toxic” each time. The Time is listed as 596 s in data set [3], 171.5 s in data set [4], 9.9 s in data set [5] and 7.77 s in data set [6].
With `COc1nc(-c2ccc([N+](=O)[O-])cc2)cc(-c2c(-c3ccc(F)cc3)nc3c(C)cccn23)c1C#N`, the Time amounted to 469.2 s in data set [3], 115.7 s in data set [4], 9.13 s in data set [5] and 7.01 s in data set [6].
Regarding `COc1nc(-c2ccc(F)cc2)cc(-c2c(-c3ccccc3)nc3c(C)cccn23)c1C#N`, the MED entry in data set [1] and in data set [2] was “Non-toxic” in each case. Further, the Time in data set [3] is 456.7 s; in data set [4] it was 90.87 s; in data set [5] it was 10.77 s; in data set [6] it was 6.96 s.
Take `COc1nc(-c2ccc([N+](=O)[O-])cc2)cc(-c2c(-c3ccccc3)nc3c(C)cccn23)c1C#N`: the MED result in data set [1] and in data set [2] was “Non-toxic” throughout. In addition, the Time was 426.8 s in data set [3], 79.32 s in data set [4], 8.72 s in data set [5] and 8.52 s in data set [6].
`COc1nc(-c2ccc(C)cc2)cc(-c2c(-c3ccccc3)nc3c(C)cccn23)c1C#N`: the MED entry in data set [1] and in data set [2] was “Non-toxic” each time. Besides, the Time is reported as 595.7 s in data set [3], 170.7 s in data set [4], 10.9 s in data set [5] and 6.85 s in data set [6].
In the case of `Cc1cccn2c(-c3cc(-c4ccc(Cl)cc4)nc(N)n3)c(-c3ccc(F)cc3)nc12`, the Time worked out at 480.2 s in data set [3], 109.7 s in data set [4], 7.95 s in data set [5] and 9.88 s in data set [6].
The corresponding values for `Cc1cccn2c(-c3cc(-c4ccc([N+](=O)[O-])cc4)nc(N)n3)c(-c3ccc(F)cc3)nc12` are 435.8 s, 85.33 s, 8.8 s and 8.67 s.
As to `Cc1ccc(-c2cc(-c3c(-c4ccc(F)cc4)nc4c(C)cccn34)nc(N)n2)cc1`, the MED result in data set [1] and in data set [2] was “Non-toxic” in each case. Besides, the Time in data set [3] is on record as 593.2 s; in data set [4], 171.4 s; in data set [5] it was 8.16 s; in data set [6] it was 8.15 s.
On to `Cc1cccn2c(-c3cc(-c4ccccc4)nc(N)n3)c(-c3ccc(F)cc3)nc12`, for which the MED result in data set [1] and in data set [2] was “Non-toxic” in each case. The Time in data set [3] turned out to be 469.2 s; in data set [4], 115.7 s; in data set [5], 8.11 s; in data set [6], 8.27 s.
Turning to `Cc1cccn2c(-c3cc(-c4cccs4)nc(N)n3)c(-c3ccccc3)nc12`, the MED entry in data set [1] and in data set [2] was “Non-toxic” throughout. The Time in data set [3] came to 426.8 s; in data set [4], 79.5 s; in data set [5] it was 8.86 s; in data set [6], 8.71 s.
Consider `Cc1ccc(-c2cc(-c3c(-c4ccccc4)nc4c(C)cccn34)nc(N)n2)cc1`, for which the MED entry in data set [1] and in data set [2] was “Non-toxic” each time. The Time worked out at 454.7 s in data set [3], 90.83 s in data set [4], 8.72 s in data set [5] and 8.52 s in data set [6].
In the case of `Cc1cccn2c(C3C=C(c4ccc(Cl)cc4)NC(=S)N3)c(-c3ccc(F)cc3)nc12` (centres undefined), the Time worked out at 435 s in data set [3], 82.5 s in data set [4], 9.9 s in data set [5] and 7.77 s in data set [6].
In the case of `Cc1cccn2c(C3C=C(c4ccccc4)NC(=S)N3)c(-c3ccc(F)cc3)nc12` (centres undefined), the MED result in data set [1] and in data set [2] was “Non-toxic” in each case. Besides, the Time in data set [3] amounted to 479.7 s; in data set [4], 107 s; in data set [5], 8.04 s; in data set [6] it was 8.13 s.
Turning to `Cc1ccc(C2=CC(c3c(-c4ccccc4)nc4c(C)cccn34)NC(=S)N2)cc1` (centres undefined), the MED entry in data set [1] and in data set [2] was “Non-toxic” each time. In addition, the Time in data set [3] was found to be 426.5 s; in data set [4] it was 79.34 s; in data set [5], 9.75 s; in data set [6] it was 7.45 s.
In the case of `Cc1cccn2c(C3C=C(c4ccc(F)cc4)NC(=S)N3)c(-c3ccccc3)nc12` (centres undefined), the MED result in data set [1] and in data set [2] was “Non-toxic” in each case. The Time stood at 454.7 s in data set [3], 90.83 s in data set [4], 10.91 s in data set [5] and 6.87 s in data set [6].
For the molecule `CN1C(=O)CN=C(c2ccccc2)c2cc(Cl)ccc21` [DIAZEPAM], the MED entry in data set [1] and in data set [2] was “Non-toxic” throughout. The Time in data set [5] was determined as 13.17 s.
